This is an account of results in patent US9084424B2, “N-benzyl heterocyclic carboxamides” (BAYER INTELLECTUAL PROPERTY GMBH, priority 2010, dated 2015).

The series in a line: log P by HPLC on reversed-phase column (EEC Directive 79/831 Annex V.A8). The class given is physicochemical. The note with it: 0.1% aqueous formic acid and acetonitrile, linear gradient 10% to 90% acetonitrile. The protocol: In table 1, the log P values were determined in accordance with EEC Directive 79/831 Annex V.A8 by HPLC (High Performance Liquid Chromatography) on a reversed-phase column (C 18), using the method described below: Temperature: 40° C.; Mobile phases: 0.1% aqueous formic acid and acetonitrile; linear gradient from 10% acetonitrile to 90% acetonitrile. Calibration was carried out using unbranched alkan-2-ones (comprising 3 to 16 carbon atoms) with known log P values (determination of the log P values by the retention times using linear interpolation between two successive alkanones). lambda-max-values were determined using UV-spectra from 200 nm to 400 nm and the peak values of the chromatographic signals.

[1] abbreviates: HPLC, reversed-phase C 18, 40° C.
Where [2] appears, read: HPLC on reversed-phase column (C 18), 40° C.

Broadly, the logP is a log measure of how a compound divides between an organic and an aqueous phase. Higher therefore signals a more lipophilic compound. In turn, `CCc1ccccc1CN(C(=O)c1c(C(F)F)nn(C)c1F)C(C)C` [Example 14] came in with a logP under setting [1] of 3.39.

For the compound `Cn1nc(C(F)F)c(C(=O)N(Cc2cc(Cl)ccc2C(F)(F)F)C2CSC2)c1Cl` [Example 86], the logP under setting [1] is 4.08.

`Cn1nc(C(F)F)c(C(=O)NCc2ccc(Oc3ccccc3)cc2)c1Cl` [Example 151] gave a logP under setting [2] of 3.37.

With `Cn1nc(C(F)F)c(C(=O)NCc2ccc(-c3ccccc3)cc2)c1Cl` [Example 168], under setting [2], the logP turned out to be 3.35.

In turn, `Cn1nc(C(F)F)c(C(=O)NCc2ccccc2C2CC2)c1Cl` [Example 66] had a logP under setting [1] of 2.98.

Under setting [1], `CN(Cc1cc(Cl)ccc1Cl)C(=O)c1c(C(F)F)nn(C)c1F` [Example 58] registered a logP of 3.02.

`Cn1nc(C(F)F)c(C(=O)NC2(c3ccc(C(F)(F)F)cc3)CCCC2)c1Cl` [Example 122]: under setting [2], the logP amounted to 3.87.

For the compound `CC(C)c1ccccc1CN(C(=O)c1c(C(F)F)nn(C)c1F)C(C)C` [Example 69], under setting [1], the logP is 3.70.

For the compound `CN(Cc1cc(Cl)ccn1)C(=O)c1c(C(F)F)nn(C)c1Cl` [Example 173], under setting [2], the logP is listed as 2.01.

Under setting [2], `Cn1nc(C(F)F)c(C(=O)NCc2ccccc2-c2ccccc2)c1Cl` [Example 164] returned a logP of 3.39.

Regarding `COc1ccc(C2(NC(=O)c3c(C(F)F)nn(C)c3Cl)CCCC2)cc1` [Example 132], the logP under setting [2] is listed as 3.19.

In the case of `CC(C)N(Cc1ccccc1[Si](C)(C)C)C(=O)c1c(C(F)F)nn(C)c1F` [Example 102], under setting [1], the logP is on record as 4.37.

`Cn1nc(C(F)F)c(C(=O)NC2(c3ccccn3)CCCC2)c1F` [Example 172] yielded a logP under setting [2] of 1.13.

With `Cn1nc(C(F)F)c(C(=O)NCc2ccc3c(c2)CCCC3)c1Cl` [Example 111], the logP under setting [2] worked out at 3.44.

In turn, `CCOc1ccc(C2(NC(=O)c3c(C(F)F)nn(C)c3Cl)CCCC2)cc1` [Example 130] gave a logP under setting [2] of 3.59.

For `Cn1nc(C(F)F)c(C(=O)N(Cc2ncc(C(F)(F)F)cc2Cl)C2CCCC2)c1F` [Example 190], the logP under setting [2] worked out at 3.96.

Regarding `Cn1nc(C(F)F)c(C(=O)NCc2cccc(Oc3ccccc3)c2)c1Cl` [Example 146], under setting [2], the logP turned out to be 3.46.

As for `Cn1nc(C(F)F)c(C(=O)NCc2ncc(C(F)(F)F)cc2Cl)c1Cl` [Example 178], the logP under setting [2] is given as 3.08.

The compound `Cn1nc(C(F)F)c(C(=O)NCc2ccccc2Oc2ccccc2)c1Cl` [Example 143] registered a logP under setting [2] of 3.46.

On to `Cn1nc(C(F)F)c(C(=O)NCc2ccccc2-c2ccccc2)c1F` [Example 163], for which, under setting [2], the logP amounted to 3.21.

Consider `Cn1nc(C(F)F)c(C(=O)NCc2ccccc2Cl)c1Cl` [Example 21], for which the logP under setting [1] is given as 2.69.

Consider `Cn1nc(C(F)F)c(C(=O)NCc2cccc(-c3ccccc3)c2)c1Cl` [Example 165], for which the logP under setting [2] turned out to be 3.33.

As for `Cn1nc(C(F)F)c(C(=O)NCc2ccc(Cl)cc2Cl)c1Cl` [Example 34], the logP under setting [1] was determined as 4.19.

Under setting [1], `Cn1nc(C(F)F)c(C(=O)NCc2cc(Cl)ccc2Cl)c1Cl` [Example 47] had a logP of 4.39.

`COc1ccc(CNC(=O)c2c(C(F)F)nn(C)c2F)cc1OC` [Example 119] displayed a logP under setting [2] of 1.79.

Regarding `Cn1nc(C(F)F)c(C(=O)NCc2c(F)cccc2C(F)(F)F)c1F` [Example 95], under setting [1], the logP was 2.69.

As to `CN(Cc1ccc(Cl)cc1Cl)C(=O)c1c(C(F)F)nn(C)c1Cl` [Example 42], under setting [1], the logP amounted to 3.37.

Consider `Cn1nc(C(F)F)c(C(=O)NCc2c(Cl)cccc2Cl)c1F` [Example 60], for which, under setting [1], the logP came out at 4.39.

`Cn1nc(C(F)F)c(C(=O)N(CC#N)Cc2ccccc2[Si](C)(C)C)c1F` [Example 97] registered a logP under setting [1] of 3.52.

As for `CON(Cc1ccccc1C(C)C)C(=O)c1c(C(F)F)nn(C)c1Cl` [Example 77], the logP under setting [1] worked out at 3.51.

Consider `Cn1nc(C(F)F)c(C(=O)NC(C#N)c2ccccc2)c1F` (racemic) [Example 3], for which, under setting [1], the logP was 2.07.

In the case of `Cn1nc(C(F)F)c(C(=O)NCc2ccc(Cl)cc2)c1Cl` [Example 128], the logP under setting [2] came out at 2.70.

On to `Cn1nc(C(F)F)c(C(=O)N(Cc2ncc(Cl)cc2Cl)C2CCCC2)c1F` [Example 183], for which the logP under setting [2] is 3.85.

The compound `CC(c1ncc(Cl)cc1Cl)N(C)C(=O)c1c(C(F)F)nn(C)c1Cl` (centres unmarked) [Example 186] registered a logP under setting [2] of 3.11.

Consider `Cn1nc(C(F)F)c(C(=O)NC(C)(C)c2c(F)cccc2F)c1Cl` [Example 10], for which, under setting [1], the logP is reported as 3.89.

Take `Cn1nc(C(F)F)c(C(=O)NCc2ccc(C(F)(F)F)cc2)c1F` [Example 123]: under setting [2], the logP is on record as 2.75.

Regarding `Cn1nc(C(F)F)c(C(=O)N(Cc2ncc(C(F)(F)F)cc2Cl)C2CCCC2)c1Cl` [Example 189], the logP under setting [2] was 4.21.

Under setting [2], `Cn1nc(C(F)F)c(C(=O)NC2(c3cccc(C(F)(F)F)c3)CCCC2)c1Cl` [Example 109] had a logP of 3.80.

`Cn1nc(C(F)F)c(C(=O)NCc2ccc(OCc3ccccc3)cc2)c1Cl` [Example 160] had a logP under setting [2] of 3.37.

For the compound `Cn1nc(C(F)F)c(C(=O)NCc2ccc(C(F)(F)F)cc2)c1Cl` [Example 124], the logP under setting [2] is listed as 2.90.

Under setting [2], `COc1ccc(CNC(=O)c2c(C(F)F)nn(C)c2F)cc1` [Example 134] showed a logP of 2.08.

Regarding `Cn1nc(C(F)F)c(C(=O)NCc2ccccc2Cl)c1F` [Example 25], under setting [1], the logP is 2.50.

Under setting [1], `CC(c1c(Cl)cccc1Cl)N(C)C(=O)c1c(C(F)F)nn(C)c1Cl` (centres unmarked) [Example 63] displayed a logP of 3.25.

Compound `Cn1nc(C(F)F)c(C(=O)NC(C#N)c2ccccc2)c1Cl` (racemic) [Example 4] had a logP under setting [1] of 2.20.

`Cn1nc(C(F)F)c(C(=O)NCc2c(F)cccc2C(F)(F)F)c1Cl` [Example 96] gave a logP under setting [1] of 2.86.

In the case of `Cn1nc(C(F)F)c(C(=O)NC2(c3cc(Cl)ccc3Cl)CC2)c1Cl` [Example 48], the logP under setting [1] worked out at 4.19.

Under setting [2], `CN(Cc1ccc(Oc2ccccc2)cc1)C(=O)c1c(C(F)F)nn(C)c1Cl` [Example 155] showed a logP of 3.48.

`Cn1nc(C(F)F)c(C(=O)NCc2c(Cl)cccc2Cl)c1Cl` [Example 59]: the logP under setting [1] came to 3.89.

For the compound `COc1ccc(CNC(=O)c2c(C(F)F)nn(C)c2Cl)cc1OC` [Example 120], the logP under setting [2] turned out to be 1.36.

For `Cn1nc(C(F)F)c(C(=O)NC2(c3ccccn3)CCCC2)c1Cl` [Example 171], the logP under setting [2] is reported as 1.30.

On to `Cn1nc(C(F)F)c(C(=O)NC(C)(C)c2cc(Cl)cc(Cl)c2)c1F` [Example 114], for which, under setting [2], the logP worked out at 3.59.

Under setting [1], `Cn1nc(C(F)F)c(C(=O)NC(C)(C)c2c(F)cccc2F)c1F` [Example 9] gave a logP of 4.19.

In the case of `Cn1nc(C(F)F)c(C(=O)NC(C#N)c2cc(F)ccc2F)c1Cl` (racemic) [Example 7], the logP under setting [1] amounted to 2.31.

`CN(Cc1cc(Cl)ccc1Cl)C(=O)c1c(C(F)F)nn(C)c1Cl` [Example 57] had a logP under setting [1] of 3.23.

Consider `Cn1nc(C(F)F)c(C(=O)NC(C#N)c2cc(F)ccc2F)c1F` (racemic) [Example 8], for which the logP under setting [1] was 2.01.

Under setting [1], `CCc1ccccc1CN(CC#N)C(=O)c1c(C(F)F)nn(C)c1F` [Example 11] registered a logP of 2.68.
